Where two headings read alike, the source gives them in different places.
Legend:
[1] = system: kidney disease model rats; conditions: cited from earlier work
hyperlipemia model rats = conditions: cited from earlier work
[2] = system: kidney disease model rats; assay: Action to depress blood pressure in kidney disease model rats (tail cuff); format: in vivo, Sprague-Dawley female rats; conditions: 20 mg/kg per os
Experimental: (§1) The compounds of the present invention and the reference substance were forcedly administered per os to kidney disease model rats, and the action to depress blood pressure was observed. The kidney disease model rats were prepared by ligature of branches of renal artery in accordance with the conventional method, that is, the left hilum renalis of Sprague-Dawley female rats was exposed under anesthesia, and one of four secondary branches of renal artery was left unligated, while the remaining three branches were ligated, respectively. After a week, the hilum renalis (artery, vein, and ureter) of the right kidney were further ligated to thereby prepare the rats whose renal function was lowered to approximately 1/8 of the normal function. Each group consisted of eight rats. The drugs to be tested (20 mg/kg) were administered to each administering group, and only water was administered to control group. After two days from the administration, the systolic blood pressure was measured by the tail cuff method using a blood pressure measuring apparatus (UR5000; Ueda).

[3] = system: renal dysfunction model rats; conditions: cited from earlier work
[4] = Acute toxicity, single oral dose in mice; format: in vivo, ICR female mice; conditions: 500 mg/kg single oral dose, 6 days, 5 per group
Experimental: Five-week-old ICR female mice (5 mice per group) were bred for acclimation for a week. Then, the compounds of the present invention were dissolved or dispersed in an aqueous solution of 0.5% methylcellulose, and orally administered to the mice in a single dosage (500 mg/kg).

[5] = biological target: T1, angiotensin II receptor subtype 1 (AT1) (Oryctolagus cuniculus, UniProt P34976); assay: Binding to angiotensin II receptor subtype 1 (AT1); design: species or system rabbits (adrenal glands); conditions: 100 μM; 3H-angiotensin II tracer
T1 construct: from adrenal glands in rabbits; from tissue; host or cells: rabbit adrenal glands
T1 sequence (P34976 1-359): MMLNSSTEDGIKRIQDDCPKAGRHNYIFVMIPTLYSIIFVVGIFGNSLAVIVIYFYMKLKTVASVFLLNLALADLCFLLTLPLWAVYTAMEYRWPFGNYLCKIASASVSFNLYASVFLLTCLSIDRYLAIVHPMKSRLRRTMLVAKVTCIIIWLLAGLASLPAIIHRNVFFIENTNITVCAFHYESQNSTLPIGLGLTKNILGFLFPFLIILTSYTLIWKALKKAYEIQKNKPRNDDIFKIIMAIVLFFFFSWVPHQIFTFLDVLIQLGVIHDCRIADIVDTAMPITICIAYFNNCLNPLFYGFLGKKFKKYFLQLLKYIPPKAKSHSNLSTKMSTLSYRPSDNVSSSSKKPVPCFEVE
Experimental: (§2) In this Example, the affinity to the angiotensin II receptor subtype 1 or subtype 2 was evaluated by a binding assay in accordance with the method described in Biochem. Pharmacol., 33, 4057-4062 (1984).
(§3) Specifically, the measurement of the total binding in the presence of each drug was performed as follows:
(§4) A mixture (final volume=0.25 ml) of a drug in a given concentration (the drug was dissolved in DMSO, and diluted to a double volume with a buffer attached to a drug discovery system to prepare sample for the assay; 0,025 ml), a tracer (0.025 ml), and receptors (0.2 ml) was incubated [in the case of the angiotensin II receptor subtype 1 (AT1), at room temperature for 3 hours, and in the case of the subtype 2 (AT2), at 37° C. for 1 hour]. Then, the reaction mixture was filtered with suction (GF/C filter was used in AT1, and GF/B filter was used in AT2). The filter papers after filtration with suction (the tracer bound to the receptors) were counted by a γ-well counter (ARC-500, Aloka). The non-specific bindings were measured by repeating the above method, except that a large excess amount of a displacer was added. The specific binding of the drug in the given concentration was calculated by subtracting the non-specific binding from the total binding, respectively.
(§5) In AT1 and AT2, the percentages to inhibit the bindings of radioactive ligands (tracer) to receptors by the drugs to be tested (IC50 value of concentration to show 50% inhibition, or binding inhibition % in 100 μM) were measured, using the drugs to be tested and control drugs in the given concentration.

[6] = biological target: T2, angiotensin II receptor subtype 2 (AT2) (Bos taurus, UniProt G5E6F7); assay: Binding to angiotensin II receptor subtype 2 (AT2); design: species or system bovine (cerebellar cortex); conditions: 125I-Tyr4-angiotensin II tracer, 37° C., 1 hour
T2 construct: from cerebellar cortex in bovine; from tissue; host or cells: bovine cerebellar cortex
T2 sequence (G5E6F7 1-362): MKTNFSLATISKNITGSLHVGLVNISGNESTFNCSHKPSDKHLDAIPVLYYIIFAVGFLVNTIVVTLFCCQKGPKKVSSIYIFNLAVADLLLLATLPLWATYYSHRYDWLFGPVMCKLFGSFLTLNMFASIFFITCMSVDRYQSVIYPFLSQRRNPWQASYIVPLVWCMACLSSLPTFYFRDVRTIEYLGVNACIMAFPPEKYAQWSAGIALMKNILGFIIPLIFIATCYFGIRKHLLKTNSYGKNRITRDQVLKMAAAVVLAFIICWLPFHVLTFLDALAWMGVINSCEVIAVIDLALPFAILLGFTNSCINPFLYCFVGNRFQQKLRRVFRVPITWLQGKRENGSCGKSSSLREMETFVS
Experimental: as §2, §3, §4, §5
from cerebellar cortex in bovine
tracer: ^125 I-Tyr^4 -angiotensin II

[7] = system: kidney disease model rats; assay: Action to survival time of kidney diseased animals; format: in vivo, Sprague-Dawley female rats; conditions: 20 mg/kg/day per os; observation eight weeks (upper limit); control 5.0
Experimental: as §1
The kidney disease model rats were prepared as in Example 21. Fifteen groups (8 rats per group) were prepared in a manner so that there was no major difference between the groups in the serum creatinine value and the urea nitrogen value indicating renal function. The rats in each group were allowed to freely take up feed and water. […] To the rats in the control group, only water was forcedly administered per os every day. If kidney diseases are aggravated, the rat will die of uremia. Thus, the survival time was observed as comprehensive indication of the improvement effect on the kidney diseases. The observation period was eight weeks. Thus if all rats survived, the average survival time is eight weeks and it is an upper limit.

[8] = system: kidney disease model rats; assay: Renal function indicatory value (action to kidney diseases); format: in vivo, Sprague-Dawley female rats; conditions: 20 mg/kg/day per os, two weeks
Experimental: The kidney disease model rats were prepared by ligature of branches of renal artery in accordance with the conventional method, that is, the left hilum renalis of Sprague-Dawley female rats was exposed under anesthesia, and one of four secondary branches of renal artery was left unligated, while the remaining three branches were ligated, respectively. […] Each group consisted of eight rats. The drugs to be tested (20 mg/kg) were administered to each administering group, and only water was administered to control group. After two days from the administration, the systolic blood pressure was measured by the tail cuff method using a blood pressure measuring apparatus (UR5000; Ueda).
The kidney disease model rats were prepared as in Example 21. Fifteen groups (8 rats per group) were sleeked in a manner so that there were no major differences between each group in the serum creatinine value and the urea nitrogen value indicating renal function. The rats in each group were allowed to freely take up feed and water. […] To the rats in the control group, only water was forcedly administered per os every day. After two weeks, 0.2 ml of blood was collected from the carotid artery of the rat under anesthesia, and centrifuged to obtain serum. Using 25 μl of the serum, serum creatinine (Scr) was measured by a creatinine analytical instrument (Beckman). Using 10 μl of the serum, urea nitrogen (BUN) was measured by a BUN analytical instrument (Beckman). Creatinine clearance was evaluated as follows:
After serum creatinine measurement, rats were placed in urinary metabolic cages for 24 hours to collect urine. Urinary creatine concentration (Ucr) was measured by a creatinine analytical instrument, and total volume of urination (Uvol) was also measured. Creatinine clearance (CCr) was calculated by the following formula: [formula]

Structure (SMILES): CCCN(Cc1ccc(-c2ccccc2-c2nnn[nH]2)cc1)c1ncccc1C(=O)O [A-81988, 2-[N-propyl-N-[[2'-(1H-tetrazol-5-yl)biphenyl-4-yl]methyl]amino]pyridine-3-carboxylic acid]
- blood pressure [1]: the reduction of blood pressure was observed
- proteinuria [1]: proteinuria was improved

Structure (SMILES): CCCCc1nc(Cl)c(CO)n1Cc1ccc(-c2ccccc2-c2nnn[nH]2)cc1 [DuP753, 2-butyl-4-chloro-5-(hydroxymethyl)-1-[[2'-(1H-tetrazol-5-yl)biphenyl-4-yl]methyl]imidazole]
- blood pressure (hyperlipemia model rats; large dose more effective against the kidney disease): an evident reduction of blood pressure was observed
- blood pressure (hyperlipemia model rats; lower dose): without practical effect to blood pressure
- effect on kidney disease (hyperlipemia model rats; lower dose): the kidney disease was improved
- action to depress blood pressure (in words) ([2]; comparison with control group): clearly showed the action to depress the blood pressure
- blood pressure [3]: the reduction of blood pressure accompanied
- effect on proteinuria and glomerulosclerosis [3]: effective against proteinuria and glomerulosclerosis

Structure (SMILES): CCCCC(=O)Nc1c(Cl)ncnc1NCc1ccc(C(=O)OC)cc1 [Compound No. 1, methyl 4-[[(6-chloro-5-valeramido)pyrimidin-4-yl]aminomethyl]benzoate]
- Number of deaths/number of survivals [4]: 0/5
- inhibition at 100 µM [5]: 11%
- inhibition at 100 µM [6]: 0%
- Blood pressure (average systolic) ([2]; after two days, control 210 mmHg): 210 mmHg
- Average survival time [7]: 6.9 weeks
- Creatinine clearance (CCr) ([8]; control 0.20): 0.29 mL/min
- Creatinine (serum, Scr) ([8]; control 2.0): 1.7 mg/dL
- Urea nitrogen (BUN) ([8]; control 100): 84 mg/dL

Reference: patent US5585381A, “Pyrimidine derivatives and pharmaceutical composition” (Kureha Chemical Industry Co., Ltd., priority 1994, dated 1996)
